Measurements as given in patent publication US8937039B2, “Peptide-based peroxidase inhibitors and methods of using same” (The Medical College of Wisconsin, Inc., priority 2009, dated 2015).
Entries after “also recorded” stand apart in the source; their conditions may differ. Residues, ends and D or L forms follow the SMILES beside them.

Key:
[1] = biological target: T1, NADPH oxidase (NOX) (Homo sapiens, UniProt P04839); assay: PMA-stimulated HL-60 cell superoxide formation (SOD-inhibitable cytochrome C reduction); type: cell-based; conditions: cytochrome C assay
T1 construct: host or cells: HL-60 cells stimulated with PMA
T1 sequence (P04839 2-570 limits assumed): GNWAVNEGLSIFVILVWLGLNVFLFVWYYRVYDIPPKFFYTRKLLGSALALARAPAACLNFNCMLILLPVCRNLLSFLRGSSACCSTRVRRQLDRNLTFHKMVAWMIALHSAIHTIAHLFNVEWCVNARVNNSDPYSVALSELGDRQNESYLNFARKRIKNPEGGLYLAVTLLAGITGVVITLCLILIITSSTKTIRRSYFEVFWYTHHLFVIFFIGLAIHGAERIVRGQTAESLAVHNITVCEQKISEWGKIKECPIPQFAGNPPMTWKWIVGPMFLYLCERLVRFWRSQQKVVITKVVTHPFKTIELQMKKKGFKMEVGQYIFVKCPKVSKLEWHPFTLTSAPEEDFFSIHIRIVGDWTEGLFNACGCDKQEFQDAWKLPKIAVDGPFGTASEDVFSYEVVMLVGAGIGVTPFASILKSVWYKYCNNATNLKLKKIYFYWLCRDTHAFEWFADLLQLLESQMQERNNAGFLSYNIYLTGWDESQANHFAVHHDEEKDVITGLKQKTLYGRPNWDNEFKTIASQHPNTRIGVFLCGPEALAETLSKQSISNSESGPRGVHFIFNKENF
T1 sequence (P13498 2-195 partner limits assumed): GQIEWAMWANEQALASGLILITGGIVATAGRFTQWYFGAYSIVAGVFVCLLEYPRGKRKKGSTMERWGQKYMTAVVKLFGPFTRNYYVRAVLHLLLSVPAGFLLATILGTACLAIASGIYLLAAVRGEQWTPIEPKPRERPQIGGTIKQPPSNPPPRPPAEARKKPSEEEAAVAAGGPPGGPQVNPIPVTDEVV
Experimental: PMA-induced Superoxide Anion Formation. HL-60 cells were cultured in RPMI 1640 medium containing 10% FCS (passage 20-50). HL-60 cells were harvested by centrifugation (1000 rpm, 10 min), washed 2× with phosphate buffer (10 mM, pH 7.4) with NaCl (138 mM), KCl (2.67 mM), CaCl2 (0.901 mM), MgCl2 (0.493 mM) and glucose (1 mg/ml) to remove culture medium. The HL-60 cells (6×10^6/0.5 ml) were re-suspended in DPBS. After stimulation with PMA (10 μM), the HL-60 cells were incubated with cytochrome C (40 μM) with or without superoxide dismutase at 37° C. for 30 min. The reaction was stopped by centrifugation. Cytochrome C reduction was measured at 550 nm on a UV-Vis spectrophotometer (Agilent, Model 8453).
PMA-stimulated HL-60 cell O2.^− Formation: HL-60 cells were harvested by centrifugation (1000 rpm, 10 min), washed twice with DPBS with glucose to remove culture medium. The HL-60 cells (1.2×10^7/ml) were re-suspended in DPBS with glucose. After stimulation with PMA (10 μM), the HL-60 cells were incubated with cytochrome C (40 μM) with or without superoxide dismutase (500 units/mL) at 37° C. for 10 min and then the HL-60 cells were removed by centrifugation. Cytochrome C reduction in supernatants was measured at 550 nm using a UV-Vis spectrophotometer (Agilent, Model 8453).

[2] = test system: SCD mice; assay: Vessel wall thickness of facialis arteries of treated SCD mice; type: in vivo, mouse; conditions: KYC three weeks; P=0.10
Experimental: Vessel Wall Thickness. After completing the vasodilatation studies, the pressurized vessels were maximally dilated by addition of papaverine (10^−4 mol/L, 4 min), and outside and inside diameters recorded. An index of wall thickness was calculated using the following formula; ([…]/2)/outside diameter, as previously described.

[3] = test system: BAEC; assay: MPO-mediated BAEC injury (cell morphology); type: cell-based, bovine; conditions: MPO 2.5 μg/ml, H2O2 50 μM
Experimental: MPO-mediated BAEC Injury: BAEC (passage 6-8) were cultured in 24 well plates in DMEM containing 10% FBS until 70-80% confluent. The cells were washed with Hank's balanced salt solution (HBSS) 3 times and incubated with MPO (2.5 μg/mL) and H2O2±KYC at the concentrations indicated in HBSS for 30 min. Finally, BAEC were examined visually and images captured for permanent record using a Nikon Eclipse microscope (Model TS 100) fitted with a Nikon Digital Sight DS-U2 camera and NIS-Elements F 3.0 imaging software. Images are representative of 3 independent experiments.
KYC protects BAEC from MPO-induced injury. […] BAEC in 96 well were treated with 100 μl of HBSS containing MPO (2.5 μg/ml) and H2O2 (50 μM) for 20 min with or without KYC. Changes in cell morphology were recorded as described in a previous report by others.

[4] = test system: SCD mice; assay: WBC counts in treated SCD mice (cytometry); type: in vivo, mouse; conditions: KYC-treated SCD mice
Experimental: […] vascular function in SCD mice. To determine whether inhibiting MPO improves vascular function and/or reduces inflammation in vivo, SCD mice were treated with KYC for three weeks. […] Such physiological and structural changes are consistent with immunofluorescent studies showing that chlorotyrosine and MPO levels are reduced in the aortas of KYC-treated SCD mice compared with non-treated SCD mice (FIG. 13). High WBC counts are indicative of on-going inflammation in SCD and predictive of future vaso-occlusive events. Accordingly, WBC levels were quantified in the SCD mice using standard cytometry assays.

[5] = Solubility in aqueous buffers; type: physicochemical

Question: With `CC(=O)N[C@@H](CCCCN)C(=O)N[C@@H](Cc1ccc(O)cc1)C(=O)N[C@@H](CS)C(N)=O` [KYC, N-acetyl Lysyltyrosylcysteine Amide] (Ac-Lys-Tyr-Cys-NH2) as the molecule, how does the “O2.− production in PMA-stimulated HL-60 cells (in words)” value [1] read?
Answer: neither KYC nor KYC disulfide have any significant effect; also recorded: Neither KYC nor KYC disulfide had any significant effect

Question: And the “Vessel wall thickness (in words)” value [2]?
Answer: reduces vessel wall thickness

Question: And the “BAEC morphology after MPO/H2O2 (in words)” value ([3]; 50 μM KYC)?
Answer: almost the same morphology as cultures that were not exposed to MPO

Question: What about the “Protection of BAEC from MPO-induced injury (in words)” value ([3]; 20 min, increasing KYC) of the same molecule?
Answer: dose-dependently increased protection

Question: And the “Reduction of WBC counts (in words)” value [4]?
Answer: more than half

Question: And the “Solubility in water / aqueous buffers (in words)” value [5]?
Answer: highly water soluble
